The values that follow come from BindingDB's records for PubMed 32120325 (China Pharmaceutical University, 2020).

Structures are written as SMILES. pIC50: −log10 of the molar value.

Experiment [1] addresses T1, Signal transducer and activator of transcription 3 (Homo sapiens, UniProt P40763). Nature of the experiment: Inhibition of IL-6 stimulated STAT3 phosphorylation in human PBMC preincubated with compound for 10 to 15 mins followed by IL-6 stimulation and measured after 15 mins by ELISA analysis.
Experiment [2] concerns the target T1, Signal transducer and activator of transcription 3. Nature of the experiment: Inhibition of IL-23 stimulated STAT3 […] in human naive T cell preincubated with compound for 10 to 15 mins followed by IL-23 stimulation and measured after 15 mins by ELISA analysis.

T1 sequence (P40763 whole entry): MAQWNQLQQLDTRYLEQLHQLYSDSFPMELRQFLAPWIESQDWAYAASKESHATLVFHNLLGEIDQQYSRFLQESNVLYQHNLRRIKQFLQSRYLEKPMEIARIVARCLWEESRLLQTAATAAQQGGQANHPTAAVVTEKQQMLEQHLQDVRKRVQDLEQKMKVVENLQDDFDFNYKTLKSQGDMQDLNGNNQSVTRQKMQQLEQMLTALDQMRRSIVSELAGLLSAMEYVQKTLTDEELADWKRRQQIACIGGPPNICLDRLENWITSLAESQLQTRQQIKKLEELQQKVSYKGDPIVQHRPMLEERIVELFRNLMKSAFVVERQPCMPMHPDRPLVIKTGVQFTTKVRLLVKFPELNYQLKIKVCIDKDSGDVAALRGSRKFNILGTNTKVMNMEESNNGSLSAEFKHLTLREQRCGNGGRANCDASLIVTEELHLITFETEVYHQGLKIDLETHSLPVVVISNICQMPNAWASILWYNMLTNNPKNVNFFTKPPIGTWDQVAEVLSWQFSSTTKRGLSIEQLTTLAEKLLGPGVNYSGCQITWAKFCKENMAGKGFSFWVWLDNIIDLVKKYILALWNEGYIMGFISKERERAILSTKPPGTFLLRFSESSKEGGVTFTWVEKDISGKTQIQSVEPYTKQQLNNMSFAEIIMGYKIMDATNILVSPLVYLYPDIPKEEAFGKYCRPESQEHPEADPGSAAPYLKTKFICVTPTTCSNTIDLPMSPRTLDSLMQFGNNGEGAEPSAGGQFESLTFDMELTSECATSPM

For the compound `CCS(=O)(=O)N1CC(CC#N)(n2cc(-c3ncnc4[nH]ccc34)cn2)C1` [LY-3009104], the negative-log IC50 (pIC50) in experiment [1] is 7.36; in experiment [2], 7.70.

A word on the pIC50: it is the IC50 on a negative log10 scale, so that one unit is a factor of ten.
